Measured values published in patent US20240018136A1, “CDK Inhibitors And Their Use As Pharmaceuticals” (Prelude Therapeutics, Incorporated, priority 2022, published 2024).

Assays:
CDK2/Cyclin E2 = CDK2/Cyclin E2 (Homo sapiens, UniProt P24941); assay: CDK2/CyclinE2 enzymatic activity assay (TR-FRET); assay type: biochemical; settings: ATP 1 mM final, read-out: CDK2_E1 IC50
Method: CDK2/CyclinE2 Enzymatic Activity Assay
(§1) The inhibitory activity of compounds was evaluated in vitro using TR-FRET assay with white 384-well low volume microplate (Greiner Bio-One). CDK2/Cyclin E2 catalyzed phosphorylation of peptide in the presence and absence of compounds was measured and used in IC50 determination. Recombinant protein complex CDK2/Cyclin E2, expressed from insect cell, was purchased from ProQinase. Testing compounds were dissolved in DMSO at 1 mM and tested in 9-dose IC50 mode. The reaction mixture was prepared by mixing CDK2/CyclinE2 (1 nM final), ULight-4E-BP1 (50 nM final, Perkinelmer, TRF0128-D), and ATP (1 mM final) in assay buffer (20 mM of HEPES pH 7.4, 1 mM of EGTA, 0.05% BSA, 0.005% Tween 20, and 1 mM TCEP). The compound of interest in DMSO was added to each well in 3-fold serial dilution by dispenser (TECAN D300E) to make a 9.9 μL of reaction mixture. After 20 minutes preincubation at room temperature, 0.1 μL MgCl2 (10 mM final) was added to initiate the reaction. Following a 45 minute incubation at 37° C., the reaction was stopped by addition of 2 μL of quenching buffer consisting of Lance detection buffer (Perkinelmer CR97-100C), LANCE Ultra Europium-anti-P-4E-BP1 (Perkinelmer, TRF0216-D), EDTA, and incubate at room temperature for an additional 60 minutes in the dark. The reaction signal was measured by Envision multimode plate reader (PerkinElmer, 2102-0010). IC50 values were determined by fitting the data to the standard 4 parameters with Hill Slope using GraphPad Prism software.

CDK4/Cyclin D1 = molecular target: T1, CDK4/Cyclin D1 (Homo sapiens, UniProt P11802); assay: CDK4/CyclinD1 enzymatic activity assay (TR-FRET); assay type: biochemical; settings: ATP 2 mM final, read-out: CDK4_D1 IC50
T1 construct: purchased ProQinase; host or cells: insect cell
Method: CDK4/CyclinD1 Enzymatic Activity Assay
as §1, with “Bio-One). CDK4/Cyclin D1” for “Bio-One). CDK2/Cyclin E2”, “in IC5” for “in IC50”, “complex CDK4/Cyclin D1,” for “complex CDK2/Cyclin E2,”, “mixing CDK4/CyclinD1” for “mixing CDK2/CyclinE2”, “ULight-4E-BP1 (100” for “ULight-4E-BP1 (50”, “ATP (2” for “ATP (1”

OVCAR3 p-RB = assay: pRB ICW assay in OVCAR3 cells; assay type: cell-based; settings: Homo sapiens, OVCAR-3, incubated with compound for 2 hours
Method: pRB ICW Assay in OVCAR3 Cells
OVCAR3 cells were maintained in RPMI (Corning, Catalog #: 10-040-CV) supplemented with 10% v/v FBS (Gibco, Catalog #: 26140-079), 1% v/v Penicillin Streptomycin (Gibco, Catalog #15140-122.) OVCAR3 cells grown at log phase were trypsinized, counted, and resuspended in fresh medium to reach a final density of 6.7e4 cells/mL and 75 μL of culture were dispensed into a 384-well plate (Falcon, cat #353962) using Multidrop Combi dispenser (Thermo Scientific). The next day, compounds were dispensed as a 9-point, ½ log serial dilution using a Tecan digital dispenser (D300e), and cells were incubated with compound for 2 hours in a humidified incubator at 37° C. A reference compound at a final concentration of 10 μM was used as a control for maximum inhibition. Each compound was tested in duplicates in each experiment. At the end of the incubation, 25 μL of 16% paraformaldehyde (Electron Microscopy, cat #15710) was slowly added to each well and the plate was incubated at room temperature (RT) for 30 minutes to fix cells. Cells were then permeabilized by incubating with 50 μL/well of wash buffer (lx PBS with 0.1% Triton X-100) 5×5 minutes, followed by 1 hour blocking with 30 μL/well of Odyssey blocking buffer (Li-COR, cat #927-40000), all at RT. Anti-phosphor RB antibody (Cell signaling 8516S) was diluted 1:1000 in Odyssey blocking buffer and 20 μL was added to all wells and incubated overnight in 4° C. with gently rocking. The next day, cells were washed 5×5 min with 50 μL/well of wash buffer, followed with 1 hour incubation with secondary antibody and DRAQ5 diluted in Odyssey blocking buffer (1:500 dilution for secondary antibody and 1:2000 dilution for DRAQ5), 5×5 min washes, and one last wash with water. Plates were dried in 37° C. oven for 5 min and scanned using Li-COR Odyssey CLx imaging system to acquire intensities at 700 and 800 nm channels.

T1 sequence (P11802 whole entry): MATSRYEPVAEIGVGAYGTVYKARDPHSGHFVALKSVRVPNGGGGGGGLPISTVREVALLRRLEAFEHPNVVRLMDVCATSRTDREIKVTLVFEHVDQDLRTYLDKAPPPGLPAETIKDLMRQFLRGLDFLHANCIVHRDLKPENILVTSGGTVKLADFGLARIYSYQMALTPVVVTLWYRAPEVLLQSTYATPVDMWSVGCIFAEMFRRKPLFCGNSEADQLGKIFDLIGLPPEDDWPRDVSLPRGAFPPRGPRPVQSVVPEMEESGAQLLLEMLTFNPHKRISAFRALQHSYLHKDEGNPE
T1 sequence (P24385 whole entry partner): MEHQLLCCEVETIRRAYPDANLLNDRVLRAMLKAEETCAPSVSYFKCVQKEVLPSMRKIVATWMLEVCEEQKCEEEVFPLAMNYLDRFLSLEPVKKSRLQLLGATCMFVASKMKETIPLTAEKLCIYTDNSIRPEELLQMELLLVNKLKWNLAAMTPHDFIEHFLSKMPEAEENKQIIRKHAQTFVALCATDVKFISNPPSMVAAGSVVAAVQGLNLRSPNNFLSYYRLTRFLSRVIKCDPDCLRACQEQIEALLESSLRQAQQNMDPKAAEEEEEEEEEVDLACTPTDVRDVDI

Compound	IC50 (CDK2/Cyclin E2) [nM]	IC50 (CDK4/Cyclin D1) [nM]	IC50 (OVCAR3 p-RB) [nM]
CCS(=O)(=O)N1CCC(Nc2ncc(C(F)(F)F)c(-c3cnc(C)s3)n2)CC1 [Example 45, N-(1-(Ethylsulfonyl)piperidin-4-yl)-4-(2-methylthiazol-5-yl)-5-(trifluoromethyl)pyrimidin-2-amine]	≤ 100	100 to 1000	100 to 1000
CC(O)c1ncc(-c2nc(N[C@H]3CCN(S(=O)(=O)c4cnc(N)s4)C[C@H]3C)ncc2C(F)(F)F)s1 (stereo partly drawn) [Example 103, 1-(5-(2-(((3R,4S)-1-((2-aminothiazol-5-yl)sulfonyl)-3-methylpiperidin-4-yl)amino)-5-(trifluoromethyl)pyrimidin-4-yl)thiazol-2-yl)ethan-1-ol]	≤ 100	100 to 1000	> 1000
CC(C)(O)Cc1ncc(-c2nc(NC3CCN(S(C)(=O)=O)CC3)ncc2C(F)(F)F)s1 [Example 68, 2-methyl-1-(5-(2-((1-(methylsulfonyl)piperidin-4-yl)amino)-5-(trifluoromethyl)pyrimidin-4-yl)thiazol-2-yl) propan-2-ol]	≤ 100	≤ 100	≤ 100
CN(CCO)c1ncc(-c2nc(NC3CCN(S(C)(=O)=O)CC3)ncc2C(F)(F)F)s1 [Example 35, 2-(methyl(5-(2-((1-(methylsulfonyl)piperidin-4-yl)amino)-5-(trifluoromethyl)pyrimidin-4-yl)thiazol-2-yl)amino)ethan-1-ol]	≤ 100	≤ 100	100 to 1000
CCNc1ncc(-c2nc(NC3CCN(S(C)(=O)=O)CC3)ncc2C(F)(F)F)s1 [Example 32, N-ethyl-5-[2-[(1-methylsulfonylpiperidin-4-yl)amino]-5-(trifluoromethyl)pyrimidin-4-yl]-1,3-thiazol-2-amine]	≤ 100	≤ 100	100 to 1000
CN(c1ncc(-c2nc(NC3CCN(S(C)(=O)=O)CC3)ncc2C(F)(F)F)s1)[C@@H]1CCC[C@H]1O [Example 34, (1R,2R)-2-(methyl(5-(2-((1-(methylsulfonyl)piperidin-4-yl)amino)-5-(trifluoromethyl)pyrimidin-4-yl)thiazol-2-yl)amino)cyclopentan-1-ol]	≤ 100	≤ 100	100 to 1000
CC(C)(O)Cc1ncc(-c2nc(NC3CCN(S(=O)(=O)CCCN4CCC(C#N)CC4)CC3)ncc2C(F)(F)F)s1 [Example 78, 1-(3-((4-((4-(2-(2-hydroxy-2-methylpropyl)thiazol-5-yl)-5-(trifluoromethyl)pyrimidin-2-yl)amino)piperidin-1-yl)sulfonyl)propyl)piperidine-4-carbonitrile]	≤ 100	≤ 100	100 to 1000
CS(=O)(=O)N1CCC(Nc2ncc(C(F)(F)F)c(-c3cnc(NC4COC4)s3)n2)CC1 [Example 38, 5-[2-[(1-Methylsulfonylpiperidin-4-yl)amino]-5-(trifluoromethyl)pyrimidin-4-yl]-N-(oxetan-3-yl)-1,3-thiazol-2-amine]	≤ 100	≤ 100	100 to 1000

Results, then the molecule that gave them:

IC50 (CDK2/Cyclin E2) [nM]	IC50 (CDK4/Cyclin D1) [nM]	IC50 (OVCAR3 p-RB) [nM]	Compound
≤ 100	100 to 1000	> 1000	CC(O)c1ncc(-c2nc(N[C@H]3CCN(S(=O)(=O)c4cnn(C)c4)C[C@@H]3F)ncc2C(F)(F)F)s1 (stereo partly drawn) [Example 100, 1-(5-(2-(((3S,4S)-3-fluoro-1-((1-methyl-1H-pyrazol-4-yl)sulfonyl)piperidin-4-yl)amino)-5-(trifluoromethyl)pyrimidin-4-yl)thiazol-2-yl)ethan-1-ol]
≤ 100	100 to 1000	100 to 1000	CC(O)c1ncc(-c2nc(N[C@H]3CCN(S(=O)(=O)c4cnn(C)c4)C[C@H]3C)ncc2C(F)(F)F)s1 (stereo partly drawn) [Example 102, 1-(5-(2-(((3R,4S)-3-methyl-1-((1-methyl-1H-pyrazol-4-yl)sulfonyl)piperidin-4-yl)amino)-5-(trifluoromethyl)pyrimidin-4-yl)thiazol-2-yl)ethan-1-ol]
≤ 100	≤ 100	100 to 1000	CC(O)c1ncc(-c2nc(N[C@@H]3CCN(S(=O)(=O)c4cnn(C)c4)C[C@H]3F)ncc2C(F)(F)F)s1 (stereo partly drawn) [Example 99, 1-(5-(2-(((3R,4R)-3-fluoro-1-((1-methyl-1H-pyrazol-4-yl)sulfonyl)piperidin-4-yl)amino)-5-(trifluoromethyl)pyrimidin-4-yl)thiazol-2-yl)ethan-1-ol]
≤ 100	≤ 100	≤ 100	CNc1ncc(-c2nc(NC3CCN(S(C)(=O)=O)CC3)ncc2C(F)(F)F)s1 [Example 28, N-methyl-5-[2-[(1-methylsulfonylpiperidin-4-yl)amino]-5-(trifluoromethyl)pyrimidin-4-yl]-1,3-thiazol-2-amine]
≤ 100	≤ 100	> 1000	CS(=O)(=O)N1CCC(Nc2ncc(C(F)(F)F)c(-c3cnc(NC(=O)C(F)(F)F)s3)n2)CC1 [Example 57, 2,2,2-Trifluoro-N-[5-[2-[(1-methylsulfonylpiperidin-4-yl)amino]-5-(trifluoromethyl)pyrimidin-4-yl]-1,3-thiazol-2-yl]acetamide]
≤ 100	≤ 100	≤ 100	Cn1cc(S(=O)(=O)N2CC[C@H](Nc3ncc(C(F)(F)F)c(-c4cnc(CC(C)(C)O)s4)n3)[C@H](F)C2)cn1 [Example 73, 1-(5-(2-(((3R,4S)-3-fluoro-1-((1-methyl-1H-pyrazol-4-yl)sulfonyl)piperidin-4-yl)amino)-5-(trifluoromethyl)pyrimidin-4-yl)thiazol-2-yl)-2-methylpropan-2-ol]
≤ 100	≤ 100	≤ 100	Cn1cc(S(=O)(=O)N2CCC(Nc3ncc(C(F)(F)F)c(-c4cnc(C(O)C(F)(F)F)s4)n3)CC2)cn1 (stereo not drawn) [Example 89, 2,2,2-trifluoro-1-(5-(2-((1-((1-methyl-1H-pyrazol-4-yl)sulfonyl)piperidin-4-yl)amino)-5-(trifluoromethyl)pyrimidin-4-yl)thiazol-2-yl)ethan-1-ol]
≤ 100	≤ 100	≤ 100	Cn1cnc(S(=O)(=O)N2CCC(Nc3ncc(C(F)(F)F)c(-c4cnc(C(O)C(F)(F)F)s4)n3)CC2)c1 (stereo not drawn) [Example 90, 2,2,2-trifluoro-1-(5-(2-((1-((1-methyl-1H-imidazol-4-yl)sulfonyl)piperidin-4-yl)amino)-5-(trifluoromethyl)pyrimidin-4-yl)thiazol-2-yl)ethan-1-ol]
